In patent USRE37770E1, “Treatment of skin conditions by use of PPARα activators” (The Regents of the University of California, priority 1997, dated 2002):

Experiments:
[1] = tested on: full-thickness flank skin from the fetal rats; test: Transepidermal water loss (TEWL) of fetal rat skin explants in organ culture (barrier function); assay type: cell-based, Sprague-Dawley rats; conditions: for EC50: Rattus norvegicus, read-out: concentration of half-maximal effect on barrier development (TEWL); for EC50 / concentration of maximal effect on barrier development (TEWL): dose response, FIGS. 4a-4c; for effect on TEWL / barrier function: 50 μM
Protocol: Timed pregnant Sprague-Dawley rats (plug date=day 0) were obtained from Simonsen (Gilroy, Calif., USA) and fetuses were delivered prematurely on day 17. Transepidermal water loss (TEWL) was measured in excised full-thickness flank skin from the fetal rats after various times in culture. The skin explants were placed dermis-side down onto collagen membrane inserts (3μ pore size) in medium M-199 (serum-free), and submerged, and the lateral edges and dermal surface were sealed with petrolatum, such that water loss occurred only through the epidermal surface. Explant samples were weighed hourly, at ambient temperature (24±3° C.) and humidity (40±5%), over 6 hours using a Cahn balance (sensitivity 0.001 mg). TEWL levels are reported as milligrams of water lost per square millimeter of epidermal surface per hour. Fatty acids and clofibrate (p-chlorophenoxyisobutyric acid) were added to the medium bound to 0.5% (weight/volume) bovine serum albumin (BSA). Isoprenoids and oxysterols were added in ethanol (≦0.1%) and juvenile hormone III was added as a dimethylsulfoxide (DMSO) solution (≦0.1%). Control explants were incubated in the presence of the appropriate vehicle (≦0.1% DMSO or ethanol, and/or ≦0.5% BSA). Skin explants from gestational day 17 rats were incubated in the presence of either various activators or vehicle, and transepidermal water loss was measured after two days. The activators and the concentrations at which they were used were as follows: […]

[2] = tested on: Skin explants from gestational day 17 rats; test: Light and electron microscopy of fetal rat skin explants (epidermal maturation); assay type: cell-based; conditions: 48 hours
Protocol: Samples for light microscopy were fixed in modified Karnovsky's solution, plastic-embedded, and 0.5 μm sections were stained with toluidine. Samples for electron microscopy were minced into 1 mm^3 pieces, fixed in modified Karnovsky's fixative, and processed. Sections were stained with uranyl acetate and lead citrate, post-fixed in ruthenium tetroxide, and examined using a Zeiss 10A electron microscope.
Explants incubated in various media woe examined by light microscopy. The incubation di included control medium (containing no activators) and various media individually containing 300 μM clofibrate, 100 μM juvenile hormone III, 300 μM oleic acid, 30 μM linoleic acid, 50 μM farnesol, and various concentrations of 9-cis-retinoic acid, all-trans-retinoic acid, and 1,25-dihydroxy vitamin D3.
Observations were then made of the ultrastructural maturation of the outer epidermis in explants that had been incubated in the various media and then post-fixed in ruthenium tetroxide. Media identical to those of the preceding paragraph were used, excluding the retinoic acid-containing and 1,25-dihydroxy vitamin D3-containing media.

involucrin mRNA = test: Involucrin mRNA in keratinocytes by Northern Blot; assay type: cell-based, Human; conditions: low calcium (0.03 mM), 24 hours, 10 μM
Protocol: (§1) Human keratinocyte cells were incubated in culture containing calcium at a concentration of 0.03 mM Ca^++ (a level that is too low to induce differentiation). Also included in the culture medium were clofibrate at 400 μM or ETYA at 10 μM and 20 μM, while separate cell cultures were maintained as controls with neither clofibrate nor ETYA. The production of mRNA for both involucrin and transglutaminase was measured at intervals over a 48-hour time period (0, 6, 12, 24, and 48 hours) by Northern Blot analysis. In each case, the lighter bars represent the control cells and the darker bars the cells incubated in the clofibrate-containing medium. The degree of mRNA generated is expressed as a percent of the control at zero hours.
(§2) Human epidermis was isolated from newborn foreskins and keratinocytes were plated in serum-free keratinocyte growth medium (“KGM”; Clonetics, San Diego, Calif. USA), using conventional techniques. Cells were treated with either the test compounds in vehicle or vehicle alone (<0.1% ethanol) for 24 or 48 hours. The test compounds were obtained from Sigma Chemical Co. (St. Louis. Mo. USA) and were stored as 15 mM stock solutions at −20° C. Mevalonate was solubilized in sterile water.
(§3) Total RNA was isolated by using TRIZOL (Sigma Chemical Co.), following the manufacturer's protocol. Ethanol-precipitate RNA pellets were suspended in sterile, diethylpyrocarbonate (DEPC)-treated water, and RNA was quantified by absorbance at 260 nm using the 260/280 nm ratio as an index of purity. RNA (15 μg per sample) was size fractionated through a 1% agarose gel containing 2.2 M formaldehyde. RNA integrity was visualized following acridine orange staining of the gel following electrophoresis. The RNA was transfered to a nylon membrane that was subsequently baked at 80° C. for 2 hours. Blots were hybridized with the appropriate ^32p-labeled probe overnight at 65° C. Washes were then performed in a solution containing 0.1% SSC and 0.1% sodium dedecyl sulfate (SDS) for 20 minutes at room temperature, followed by a 20-minute wash at 65° C. Autoradiography was performed at −70° C. Blots were probed with β-actin to confirm equal loading. Appropriate bands were quantified by densitometry.
(§4) Northern blot analyses were performed on keratinocytes maintained in low calcium (0.03 mM) and incubated for 24 hours in the presence of vehicle alone (<0.1% ethanol) or vehicle containing 25-hydroxycholesterol (10 μM), 22(R)-hydroxycholesterol (10 μM) cholesterol (10 μM), or mevalonate (500 μM) (individually). The mRNA levels of involucrin (“INV”) and transglutaminase (“TG'ase”) are shown in the bar graph of FIG. 14a, the INV indicated by clear bars and the TG'ase by shaded bars, both with error limits shown.

transglutaminase mRNA = test: Transglutaminase mRNA in keratinocytes by Northern Blot; assay type: cell-based, Human; conditions: low calcium (0.03 mM), 24 hours, 10 μM
Protocol: as §1, §2, §3, §4

involucrin protein = test: Involucrin protein level in keratinocytes by Western Blot; assay type: cell-based, Human; conditions: 0 to 15 μM, 0.03 mM Ca++, 24 hours
Protocol: Measurements of the level of the involucrin protein itself were performed in the culture medium by Western Blot. Various incubations were performed, in media containing clofibrate at concentrations ranging from 0 (vehicle only) to 400 μM and calcium ion at both 0.03 mM and 1.2 mM. The results are shown in FIG. 9a for tests with calcium ion at 0.03 mM, and in FIG. 9b for tests with calcium ion at 1.2 mM. In these figures, the protein contents are expressed as percents of the respective measurements taken from media incubated for the same period of time but in the absence of clofibrate.
The procedures of Example 8 were followed, and measurements were taken on the involucrin protein levels from cells incubated at various concentrations of farnesol and juvenile hormone III ranging from 0 (vehicle only) to 15 μM, in media containing 0.03 mM and 1.2 mM calcium ion, for 24 hours. The results are shown in FIG. 10 for farnesol and FIG. 11 for juvenile hormone III, in 0.03 mM Ca^++.
Protein concentration was assessed by protein electrophoresis and Western blotting. Cells were lysed is 2% SDS and the lysate sonicated. Protein determinations were made by use of a Bicinchoninic add protein assay (Pierce Chemical Company, Rockford, Ill. USA). Following protein determination, equal amounts at protein (50 μg) were separated by electrophoresis an 7.5% polyacrylamide gels and electroblotted onto polyvinylidene […] membranes (0.2-μ, obtained from Bio-Rad Laboratories Hercules, Calif., USA). Involucrin protein was detected by incubation over-night at 4° C. C. with a polyclonal rabbit anti-human involucrin antibody (1:1000 dilution). The involucrin-specific bands on the autoradiograms were quantitated by densitometry by densitometry. Transglutaminase protein expression was measured in a similar mmaner, using stacking, sample and running buffers containing 4 M urea, and the gels following electrophoresis were washed in 4 M urea, 25 mM TRIS-HCl, pH 7.4, 7.5 mM NaCl, 0.1 mM dithiothreitol (DTT), and 2 mM ethylenediamine tetraacetic acid for 90 minutes prior to electoblotting, allowing the transglutaminase to be detected by antibody. Specific bands on the autoradiograms were quantified by densitometry.

[3] = tested on: Normal human keratinocytes; test: Cornified envelope formation (35S incorporation) in keratinocytes; assay type: cell-based; conditions: 10 μM, 0.03 mM calcium, 48-hour

| Compound | EC50 [1] | concentration of maximal effect on barrier development (TEWL) [1] | effect on TEWL / barrier function ([1]; two days) | other results |
| --- | --- | --- | --- | --- |
| CCCCC[C@H](O)/C=C/[C@H]1C(=O)C=C[C@@H]1C/C=C\CCCC(=O)O [prostaglandin J2] | – | – | – | effect on TEWL / barrier development ([1]; 10 μM, two days): had no effect |
| CCCCCCCC/C=C\CCCCCCCC(=O)O [oleic acid] | ~250 µM | approximately 500 μM | – | light microscopy of the epidermis ([2]; 300 μM): had both a multi-layered stratum granulosum and a stratum corneum |
| CC(C)CC[C@H](O)[C@@H](C)[C@H]1CC[C@H]2[C@@H]3CC=C4C[C@@H](O)CC[C@]4(C)[C@H]3CC[C@]12C [22(S)-hydroxycholesterol] | – | – | – | involucrin (INV) mRNA level compared to the vehicle alone (involucrin mRNA): No effect; transglutaminase (TG'ase) mRNA level compared to the vehicle alone (transglutaminase mRNA): No effect |
| CC(C)=CCC/C(C)=C\CC/C(C)=C\CO [cis-farnesol] | – | – | neither mevalonate at 200 μM, 25-hydroxy cholesterol at 50 μM), squalene at 50 μM, geranylgeraniol at 50 μM, cis-farnesol at 50 μM, nor nerolidol at 100 μM significantly affected barrier function | – |
| CC(C)=CCC/C(C)=C/CC/C(C)=C/CO [farnesol, 3,7,11,trimethyl-2,6,10-dodecatrienol] | ~20 µM | approximately 50 μM | markedly decreased the TEWL | light microscopy of the epidermis ([2]; 50 μM): had both a multi-layered stratum granulosum and a stratum corneum; involucrin protein content (involucrin protein): substantial increases in involucrin protein content; rate of cornified envelope formation [3]: substantial increases in the rate of cornified envelope formation |
| CC(C)=CCC/C(C)=C/CC/C(C)=C/CC/C(C)=C/CO [geranylgeraniol] | – | – | neither mevalonate at 200 μM, 25-hydroxy cholesterol at 50 μM), squalene at 50 μM, geranylgeraniol at 50 μM, cis-farnesol at 50 μM, nor nerolidol at 100 μM significantly affected barrier function | – |
| CCCCC/C=C\C/C=C\CCCCCCCC(=O)O [linoleic acid] | ~12.5 µM | approximately 30 μM | – | effect on TEWL ([1]; explants incubated in 300 μM for two days, p<0.005, n=8): markedly decreased the TEWL; light microscopy of the epidermis ([2]; 30 μM): had both a multi-layered stratum granulosum and a stratum corneum |
| C=CC(C)(O)CCC=C(C)CCC=C(C)C (centres unmarked) [nerolidol] | – | – | – | effect on TEWL / barrier formation ([1]; 100 μM, two days): neither mevalonate at 200 μM, 25-hydroxy cholesterol at 50 μM), squalene at 50 μM, geranylgeraniol at 50 μM, cis-farnesol at 50 μM, nor nerolidol at 100 μM significantly affected barrier function |
| CC(C)=CCC/C(C)=C/CC/C(C)=C/CC/C=C(\C)CC/C=C(\C)CCC=C(C)C [squalene] | – | – | neither mevalonate at 200 μM, 25-hydroxy cholesterol at 50 μM), squalene at 50 μM, geranylgeraniol at 50 μM, cis-farnesol at 50 μM, nor nerolidol at 100 μM significantly affected barrier function | – |
